The supplement of paper PMC4862054
Several values for one entry are separate records, joined by “and”; a condition that tells them apart may be missing. Equal values may be shown once.

What was measured:
Experiment in all cases: normalised viability (% of control), CellTiter-Blue; higher = more viable cells (about 100 = DMSO control)
Details in all cases: incubation time: 72 h
HDQ-P1 [1] = test system: HDQ-P1
Method: (§1)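 DSRT, CellTiter-Blue viability, 72 h incubation. Signal is normalised to DMSO and benzethonium chloride controls. Value is the normalised response at dose 8.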

DU-4475 [2] = test system: DU-4475
Method: as §1

MDA-MB-453 [3] = test system: MDA-MB-453
Method: as §1

CAL-85-1 [4] = test system: CAL-85-1
Method: as §1

CAL-148 [5] = test system: CAL-148
Method: as §1

CAL-51 [6] = test system: CAL-51
Method: as §1

HDQ-P1 [7] = test system: HDQ-P1; remark: listed apart in the source
Method: (§2)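 DSRT, CellTiter-Blue viability, 72 h incubation. Signal is normalised to DMSO and benzethonium chloride controls. Value is the normalised response at dose 7.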

DU-4475 [8] = test system: DU-4475; remark: listed apart in the source
Method: as §2

MDA-MB-453 [9] = test system: MDA-MB-453; remark: listed apart in the source
Method: as §2

CAL-85-1 [10] = test system: CAL-85-1; remark: listed apart in the source
Method: as §2

CAL-148 [11] = test system: CAL-148; remark: listed apart in the source
Method: as §2

CAL-51 [12] = test system: CAL-51; remark: listed apart in the source
Method: as §2

HDQ-P1 [13] = test system: HDQ-P1; remark: listed apart in the source
Method: (§3)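 DSRT, CellTiter-Blue viability, 72 h incubation. Signal is normalised to DMSO and benzethonium chloride controls. Value is the normalised response at dose 9.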

DU-4475 [14] = test system: DU-4475; remark: listed apart in the source
Method: as §3

MDA-MB-453 [15] = test system: MDA-MB-453; remark: listed apart in the source
Method: as §3

CAL-85-1 [16] = test system: CAL-85-1; remark: listed apart in the source
Method: as §3

CAL-148 [17] = test system: CAL-148; remark: listed apart in the source
Method: as §3

CAL-51 [18] = test system: CAL-51; remark: listed apart in the source
Method: as §3

HDQ-P1 [19] = test system: HDQ-P1; remark: listed apart in the source
Method: (§4)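 DSRT, CellTiter-Blue viability, 72 h incubation. Signal is normalised to DMSO and benzethonium chloride controls. Value is the normalised response at dose 6.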

DU-4475 [20] = test system: DU-4475; remark: listed apart in the source
Method: as §4

MDA-MB-453 [21] = test system: MDA-MB-453; remark: listed apart in the source
Method: as §4

CAL-85-1 [22] = test system: CAL-85-1; remark: listed apart in the source
Method: as §4

CAL-148 [23] = test system: CAL-148; remark: listed apart in the source
Method: as §4

CAL-51 [24] = test system: CAL-51; remark: listed apart in the source
Method: as §4

| Structure (SMILES) | normalised viability (HDQ-P1 [1]) | normalised viability (DU-4475 [2]) | normalised viability (MDA-MB-453 [3]) | normalised viability (CAL-85-1 [4]) | normalised viability (CAL-148 [5]) | normalised viability (CAL-51 [6]) | further results |
| --- | --- | --- | --- | --- | --- | --- | --- |
| CC[C@@H]1C(=O)OC[C@@H]1Cc1cncn1C [Pilocarpine] (12000 nM) | 127% | 88% | 117% | 92.5% | 105% | 107% |  |
| COc1cc(F)c(F)c(Nc2ccc(I)cc2F)c1NS(=O)(=O)C1(C[C@H](O)CO)CC1 [RDEA119] (1000 nM) |  |  |  |  |  |  | normalised viability (HDQ-P1 [7]): 40.8%; normalised viability (DU-4475 [8]): 0.64%; normalised viability (MDA-MB-453 [9]): 67%; normalised viability (CAL-85-1 [10]): 54.1%; normalised viability (CAL-148 [11]): 87.7%; normalised viability (CAL-51 [12]): 79.3% |
| CC(=O)O[C@@]12CO[C@@H]1C[C@H](O)[C@@]1(C)C(=O)[C@H](O)C3=C(C)[C@@H](OC(=O)[C@H](O)[C@@H](NC(=O)OC(C)(C)C)c4ccccc4)C[C@@](O)([C@@H](OC(=O)c4ccccc4)[C@H]21)C3(C)C [Docetaxel] (300 nM) | 37.9% and 31.2% | 12.4% and 8.14% | 24.4% and 23.9% | 30.9% and 28.7% | 22.2% and 19.1% | 17.9% and 12% |  |
| O=C1CN2Cc3c(ccc(Cl)c3Cl)N=C2N1 [Anagrelide] (3000 nM) | 85.4% | 97.8% | 112% | 84.8% | 94.8% | 78.4% |  |
| C[C@]12CC[C@@H]3c4ccc(OC(=O)N(CCCl)CCCl)cc4CC[C@H]3[C@@H]1CC[C@@H]2O [Estramustine] (99 nM) |  |  |  |  |  |  | normalised viability (HDQ-P1 [7]): 97.1%; normalised viability (DU-4475 [8]): 106%; normalised viability (MDA-MB-453 [9]): 99.7%; normalised viability (CAL-85-1 [10]): 102%; normalised viability (CAL-148 [11]): 119%; normalised viability (CAL-51 [12]): 85.8% |
| O=P(O)(O)C(O)(Cn1ccnc1)P(=O)(O)O [Zoledronic acid] (10000 nM) |  |  |  |  |  |  | normalised viability (HDQ-P1 [13]): 106%; normalised viability (DU-4475 [14]): 98%; normalised viability (MDA-MB-453 [15]): 82.3%; normalised viability (CAL-85-1 [16]): 90.4%; normalised viability (CAL-148 [17]): 96.1%; normalised viability (CAL-51 [18]): 103% |
| CC1=C2C[C@H]3[C@@H](CC=C4C[C@@H](O)CC[C@@]43C)[C@@H]2CC[C@]12O[C@@H]1C[C@H](C)CN[C@H]1[C@H]2C [Cyclopamine] (3000 nM) | 105% | 122% | 105% | 99.7% | 111% | 109% |  |
| COc1cc(F)c(F)c(Nc2ccc(I)cc2F)c1NS(=O)(=O)C1(C[C@H](O)CO)CC1 [RDEA119] (3000 nM) | 36.1% | 1.46% | 54.9% | 33.4% | 75.7% | 69.9% |  |
| Cn1cnc2c(F)c(Nc3ccc(Br)cc3Cl)c(C(=O)NOCCO)cc21 [Selumetinib] (3000 nM) | 76.5% | 0.16% | 108% | 59.3% | 91.9% | 86.9% |  |
| Cn1cc(C2=Nc3cc(NC(=O)C(N)C4CCCCC4)cc4c3C2=CNNC4=O)cn1 (stereo not drawn) (3000 nM) | 51.6% | 62.3% | 25.2% | 50.7% | 21.9% | 80.6% |  |
| Nc1ncn([C@@H]2O[C@H](CO)[C@@H](O)[C@H]2O)c(=O)n1 [Azacitidine] (3000 nM) | 105% | 99.7% | 101% | 93.8% | 89.5% | 109% |  |
| O=NN(CCCl)C(=O)NCCCl [Carmustine] (300 nM) |  |  |  |  |  |  | normalised viability (HDQ-P1 [19]): 79.4%; normalised viability (DU-4475 [20]): 77.4%; normalised viability (MDA-MB-453 [21]): 110%; normalised viability (CAL-85-1 [22]): 94.2%; normalised viability (CAL-148 [23]): 101%; normalised viability (CAL-51 [24]): 108% |
| CC(=O)c1c(C)c2cnc(Nc3ccc(N4CCNCC4)cn3)nc2n(C2CCCC2)c1=O (1000 nM) |  |  |  |  |  |  | normalised viability (HDQ-P1 [7]): 99.5%; normalised viability (DU-4475 [8]): 94.6%; normalised viability (MDA-MB-453 [9]): 66.2%; normalised viability (CAL-85-1 [10]): 98.9%; normalised viability (CAL-148 [11]): 107%; normalised viability (CAL-51 [12]): 72.8% |
| CC(=O)O[C@@]12CO[C@@H]1C[C@H](O)[C@@]1(C)C(=O)[C@H](O)C3=C(C)[C@@H](OC(=O)[C@H](O)[C@@H](NC(=O)OC(C)(C)C)c4ccccc4)C[C@@](O)([C@@H](OC(=O)c4ccccc4)[C@H]21)C3(C)C [Docetaxel] (30 nM) |  |  |  |  |  |  | normalised viability (HDQ-P1 [19]): 23.5% and 31.8%; normalised viability (DU-4475 [20]): 19.6% and 16.1%; normalised viability (MDA-MB-453 [21]): 27.2% and 26.1%; normalised viability (CAL-85-1 [22]): 30.6% and 27.1%; normalised viability (CAL-148 [23]): 18.9% and 14.9%; normalised viability (CAL-51 [24]): 25.8% and 20.6% |
| CC1(C)CNc2cc(NC(=O)c3cccnc3NCc3ccncc3)ccc21 [Motesanib] (3000 nM) | 72.7% | 101% | 80.8% | 86.3% | 86.7% | 104% |  |
| Cc1sc2c(c1C)C(c1ccc(Cl)cc1)=N[C@@H](CC(=O)OC(C)(C)C)c1nnc(C)n1-2 [(+)JQ1] (300 nM) |  |  |  |  |  |  | normalised viability (HDQ-P1 [19]): 62.9%; normalised viability (DU-4475 [20]): 57.6%; normalised viability (MDA-MB-453 [21]): 34.8%; normalised viability (CAL-85-1 [22]): 64.2%; normalised viability (CAL-148 [23]): 73.8%; normalised viability (CAL-51 [24]): 98.1% |
| O=P(O)(O)C(O)(Cn1ccnc1)P(=O)(O)O [Zoledronic acid] (1000 nM) |  |  |  |  |  |  | normalised viability (HDQ-P1 [7]): 95.7%; normalised viability (DU-4475 [8]): 120%; normalised viability (MDA-MB-453 [9]): 86.8%; normalised viability (CAL-85-1 [10]): 88.4%; normalised viability (CAL-148 [11]): 92.5%; normalised viability (CAL-51 [12]): 101% |
| O=C1CN2Cc3c(ccc(Cl)c3Cl)N=C2N1 [Anagrelide] (300 nM) |  |  |  |  |  |  | normalised viability (HDQ-P1 [19]): 80.3%; normalised viability (DU-4475 [20]): 94.7%; normalised viability (MDA-MB-453 [21]): 111%; normalised viability (CAL-85-1 [22]): 94.4%; normalised viability (CAL-148 [23]): 107%; normalised viability (CAL-51 [24]): 77.6% |
